From ChEMBL document CHEMBL1201862, “PubChem BioAssay data set” (2004)
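Briefly, cells in 96-well plates were exposed to five compound concentrations for 48 h, and endpoints were estimated by linear interpolation. GI50 is the concentration that inhibits growth by half.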 Activity calls are given as the source filed them. No stated cut-off is given here; in the data, active = GI50 up to about 1.1 µM and inactive = higher.

Assays:
Test in all cases: NCI anticancer screen, dose series, 48 h
[1] = test system: SNB-19
[2] = test system: SK-MEL-28
[3] = test system: KM12
[4] = test system: RXF 631
[5] = test system: SK-MEL-2
[6] = test system: A498
[7] = test system: DMS-273
[8] = test system: SNB-78
[9] = test system: NCI-H460
[10] = test system: SNB-75
[11] = test system: RXF 393
[12] = test system: UACC-62
[13] = test system: U-251
[14] = test system: CAKI-1
[15] = test system: SF-268
[16] = test system: HOP-18
[17] = test system: SR
[18] = test system: HOP-62
[19] = test system: A549
[20] = test system: Malme-3M
[21] = test system: KM-20L2
[22] = test system: IGROV-1
[23] = test system: SF-539
[24] = test system: NCI-H226
[25] = test system: HCC 2998
[26] = test system: SW-620
[27] = test system: EKVX
[28] = test system: SK-MEL-5
[29] = test system: UACC-257
[30] = test system: HCT-116
[31] = test system: LXFL 529
[32] = test system: OVCAR-4
[33] = test system: HL-60
[34] = test system: RPMI-8226
[35] = test system: K562
[36] = test system: M14
[37] = test system: M19-MEL
[38] = test system: 786-0
[39] = test system: OVCAR-3
[40] = test system: COLO 205
[41] = test system: MOLT-4
[42] = test system: UO-31
[43] = test system: HCT-15
[44] = test system: ACHN
[45] = test system: DLD-1
[46] = test system: OVCAR-8
[47] = test system: SN12C
[48] = test system: TK-10
[49] = test system: NCI-H522
[50] = test system: SK-OV-3
[51] = test system: DU-145
[52] = test system: T47D
[53] = test system: MDA-MB-231
[54] = test system: LOX IMVI
[55] = test system: BT-549
[56] = test system: MDA-MB-435
[57] = test system: MDA-N
[58] = test system: NCI-H23
[59] = test system: MCF7
[60] = test system: HT-29
[61] = test system: SF-295
[62] = test system: PC-3
[63] = test system: OVCAR-5
[64] = test system: CCRF-CEM
[65] = test system: HOP-92
[66] = test system: XF498
[67] = test system: NCI/ADR-RES
[68] = test system: DMS-114
[69] = test system: Hs-578T

Measured: GI50

Nc1ncn(C2C=C(CO)C(O)C2O)c(=O)n1 (stereo unspecified)
54.2 µM: [43]
inactive: [1] > 100 µM | [2] > 100 µM | [3] > 100 µM | [4] 47.6 µM | [5] 94.4 µM | [6] > 100 µM | [7] > 100 µM | [8] > 100 µM | [9] 35 µM | [10] > 100 µM | [11] > 100 µM | [12] > 100 µM | [13] > 100 µM | [14] 40.7 µM | [15] 53 µM | [16] > 100 µM | [17] 26.7 µM | [18] 35.1 µM | [19] 52.4 µM | [20] > 100 µM | [21] 66.1 µM | [22] 84.5 µM | [23] 63.5 µM | [24] > 100 µM | [25] 89.7 µM | [26] 57.5 µM | [27] > 100 µM | [28] > 100 µM | [29] > 100 µM | [30] 40 µM | [31] > 100 µM | [32] 85.9 µM | [33] 31.6 µM | [34] 37 µM | [35] 41.6 µM | [36] > 100 µM | [37] > 100 µM | [38] 63.1 µM | [39] > 100 µM | [40] 29.3 µM | [41] 59.4 µM | [42] 92.7 µM | [44] 46.5 µM | [45] 63.5 µM | [46] 45.5 µM | [47] 32.4 µM | [48] > 100 µM | [49] 37.2 µM | [50] > 100 µM

COc1cc(C[C@H]2c3cc(OC)c(OC)cc3CCN2C)c(Oc2cc3c(cc2OC)-c2c(OC)c(OC)cc4c2[C@H](C3)N(C)CC4)cc1OC [THALICARPINE]
inactive: [1] 16.7 µM | [2] 4.02 µM | [51] 14 µM | [3] 5.18 µM | [4] 5.52 µM | [5] 10 µM | [52] 10.1 µM | [6] 7.06 µM | [53] 4.13 µM | [7] 10.7 µM | [54] 7.21 µM | [9] 9.16 µM | [10] 7.03 µM | [11] 3.05 µM | [12] 6.65 µM | [13] 3.9 µM | [55] 6.52 µM | [14] 6.22 µM | [56] 5.16 µM | [15] 9.98 µM | [57] 4.13 µM | [17] 5.08 µM | [18] 10.6 µM | [19] 11.9 µM | [58] 12.4 µM | [20] 9.44 µM | [21] 4.53 µM | [59] 12.2 µM | [22] 10.8 µM | [23] 8.28 µM | [24] 6.58 µM | [25] 7.6 µM | [26] 7.53 µM | [60] 5.66 µM | [61] 10.1 µM | [27] 12.9 µM | [62] 4.93 µM | [63] 10.5 µM | [28] 3.28 µM | [29] 5.13 µM | [30] 4.83 µM | [31] 11 µM | [64] 8.99 µM | [32] 8.3 µM | [33] 2.84 µM | [34] 8.04 µM | [35] 4.88 µM | [36] 1.52 µM | [37] 8.87 µM | [38] 3.52 µM | [39] 10.5 µM | [65] 1.78 µM | [40] 5.75 µM | [41] 6.25 µM | [42] 4.66 µM | [44] 12.9 µM | [66] 8.97 µM | [45] 15.1 µM | [67] 11.3 µM | [46] 7.43 µM | [47] 12.4 µM | [68] 9.1 µM | [69] 2.99 µM | [48] 3.61 µM | [49] 6.89 µM
5.04 µM: [43]
